Results as given in patent publication US9617276B2, “Compounds and methods for treating AIDS and HIV infections” (priority 2009, dated 2017).
Where two headings read alike, the source gives them in different places.

Experiments:
[1] = target: T1, HIV-1 protease (Human immunodeficiency virus type 1 group M subtype B, UniProt P04585); test: HIV protease enzyme inhibition, fluorometric assay of Toth and Marshall; format: biochemical; details: read-out: Ki
T1 construct: A simple, continuous fluorometric assay for HIV protease
Description: (§1) The inhibitory potencies of acyclic and cyclic inhibitors were measured by the assay protocol of Toth and Marshall (Toth, M. V.; Marshall, G. R. A simple, continuous fluorometric assay for HIV protease. Int. J. Pep. Protien Res. 1990, 36, 544-55).

[2] = tested on: HIV-1; test: antiviral assay (IC50); format: cell-based; details: read-out: IC50
Description: as §1

[3] = Human immunodeficiency virus 1, Table 1, acyclic compounds
[4] = Human immunodeficiency virus 1, Table 2

SMILES: C=CCCCCOc1cc(OC)ccc1S(=O)(=O)N(CCCCC=C)CC(O)C(Cc1ccccc1)NC(=O)OC1COC2OCCC12 (stereo not shown) [Compound 13a]
- Ki ([1]; Table 1, acyclic compounds): < 100 nM
- Ki [1]: 16 nM
- IC50 [2, 3]: > 1000 nM

SMILES: COc1ccc2c(c1)OCCCC=CCCCCN(CC(O)C(Cc1ccccc1)NC(=O)OC1COC3OCCC13)S2(=O)=O (stereo not shown) [Compound 14b-Z]
- Ki ([1]; Table 3, E and Z isomers): < 1 nM
- IC50 ([2]; Human immunodeficiency virus 1, Table 3, E and Z isomers): < 10 nM

SMILES: COc1ccc2c(c1)OCCCCC=CCC(C)CN(CC(O)C(Cc1ccccc1)NC(=O)OC1COC3OCCC13)S2(=O)=O (stereo not shown) [Compound 21b]
- Ki ([1]; Table 4): < 10 nM
- Ki [1]: 2.8 nM
- IC50 ([2]; Table 4): < 10 nM
- IC50 [2]: 6.3 nM

SMILES: COc1ccc2c(c1)OCCCCCCCC(C)CN(CC(O)C(Cc1ccccc1)NC(=O)OC1COC3OCCC13)S2(=O)=O (stereo not shown) [Compound 22b]
- Ki ([1]; Table 4): < 1 nM
- IC50 ([2]; Table 4): < 1000 nM

SMILES: C=CCCCOc1cc(OC)ccc1S(=O)(=O)N(CC=C)CC(O)C(Cc1ccccc1)NC(=O)OC1COC2OCCC12 (stereo not shown) [Compound 13f]
- Ki ([1]; Table 1, acyclic compounds): < 1 nM
- IC50 [2, 3]: < 100 nM

SMILES: COc1ccc2c(c1)OCCCCCCCN(CC(O)C(Cc1ccccc1)NC(=O)OC1COC3OCCC13)S2(=O)=O (stereo not shown) [Compound 15d]
- Ki ([1]; Table 2): < 1 nM
- IC50 [2, 4]: < 100 nM

SMILES: COc1ccc2c(c1)OCCCCC=CCCCCN(CC(O)C(Cc1ccccc1)NC(=O)OC1COC3OCCC13)S2(=O)=O (stereo not shown) [Compound 14a-E]
- Ki ([1]; Table 3, E and Z isomers): < 1 nM
- IC50 ([2]; Table 3, E and Z isomers): < 100 nM

SMILES: COc1ccc2c(c1)OCCCCC=CCCCCN(CC(O)C(Cc1ccccc1)NC(=O)OC1COC3OCCC13)S2(=O)=O (stereo not shown) [Compound 14a-Z]
- Ki ([1]; Table 3, E and Z isomers): < 1 nM
- IC50 ([2]; Table 3, E and Z isomers): > 1000 nM

SMILES: C=CCCCCOc1cc(OC)ccc1S(=O)(=O)N(CC(C)CC=C)C[C@@H](O)[C@H](Cc1ccccc1)NC(=O)O[C@H]1CO[C@H]2OCC[C@H]21 (single isomer, unassigned) [Compound 19c]
- Ki ([1]; Table 4): < 10 nM
- IC50 ([2]; Table 4): > 1000 nM

SMILES: COc1ccc2c(c1)OCCCC=CCN(CC(O)C(Cc1ccccc1)NC(=O)OC1COC3OCCC13)S2(=O)=O (stereo not shown) [Compound 14f]
- Ki ([1]; Table 2): < 1 nM
- IC50 [2, 4]: < 100 nM

SMILES: C=CCCCCOc1cc(OC)ccc1S(=O)(=O)N(CC(C)CC=C)C[C@@H](O)[C@H](Cc1ccccc1)NC(=O)O[C@H]1CO[C@H]2OCC[C@H]21 (single isomer, unassigned) [Compound 19b]
- Ki ([1]; Table 4): < 10 nM
- IC50 ([2]; Table 4): < 100 nM

SMILES: COc1ccc2c(c1)OCCCCC=CCCCCN(CC(O)C(Cc1ccccc1)NC(=O)OC1COC3OCCC13)S2(=O)=O (stereo not shown) [Compound 14a]
- Ki ([1]; Table 2): < 1 nM
- IC50 [2, 4]: < 100 nM

SMILES: COc1ccc2c(c1)OCCCCC=CCN(CC(O)C(Cc1ccccc1)NC(=O)OC1COC3OCCC13)S2(=O)=O (stereo not shown) [Compound 14e]
- Ki ([1]; Table 2): < 1 nM
- IC50 [2, 4]: < 100 nM

SMILES: C=CCCCCN(CC(O)C(Cc1ccccc1)NC(=O)OC1COC2OCCC12)S(=O)(=O)c1ccc(OC)cc1OCCCC=C (stereo not shown) [Compound 13b]
- Ki ([1]; Table 1, acyclic compounds): < 100 nM
- Ki [1]: 11 nM
- IC50 [2, 3]: > 1000 nM
- IC50 ([2]; Human immunodeficiency virus 1): > 1000 nM

SMILES: COc1ccc2c(c1)OCCCCC=CCC(C)CN(CC(O)C(Cc1ccccc1)NC(=O)OC1COC3OCCC13)S2(=O)=O (stereo not shown) [Compound 20c]
- Ki ([1]; Table 4): < 1 nM
- Ki [1]: 0.31 nM
- IC50 ([2]; Human immunodeficiency virus 1): 9 nM
- IC50 ([2]; Table 4): < 10 nM

SMILES: COc1ccc2c(c1)OCCCCC=CCC(C)CN(CC(O)C(Cc1ccccc1)NC(=O)OC1COC3OCCC13)S2(=O)=O (stereo not shown) [Compound 20b]
- Ki ([1]; Table 4): < 10 nM
- IC50 ([2]; Table 4): < 100 nM

SMILES: C=CCCCCOc1cc(OC)ccc1S(=O)(=O)N(CC=C)CC(O)C(Cc1ccccc1)NC(=O)OC1COC2OCCC12 (stereo not shown) [Compound 13e]
- Ki ([1]; Table 1, acyclic compounds): < 10 nM
- Ki [1]: 1.7 nM
- IC50 [2, 3]: < 100 nM

SMILES: C=CCCCCOc1cc(OC)ccc1S(=O)(=O)N(C[C@@H](O)[C@H](Cc1ccccc1)NC(=O)O[C@H]1CO[C@H]2OCC[C@H]21)CC(C)(C)CC=C [Compound 19a, (3R,3aS,6aR)-Hexahydrofuro[2,3-b]furan-3-yl (2S,3R)-4-(N-(2,2-dimethylpent-4-enyl)-2-(hex-5-enyloxy)-4-methoxyphenylsulfonamido)-3-hydroxy-1-phenylbutan-2-ylcarbamate]
- Ki ([1]; Table 4): < 100 nM
- IC50 ([2]; Human immunodeficiency virus 1, Table 4): > 1000 nM

SMILES: COc1ccc2c(c1)OCCCCCCCCCCN(CC(O)C(Cc1ccccc1)NC(=O)OC1COC3OCCC13)S2(=O)=O (stereo not shown) [Compound 15a]
- Ki ([1]; Table 2): < 1 nM
- IC50 [2, 4]: < 100 nM

SMILES: COc1ccc2c(c1)OCCCCCCCCCN(CC(O)C(Cc1ccccc1)NC(=O)OC1COC3OCCC13)S2(=O)=O (stereo not shown) [Compound 15b]
- Ki ([1]; Table 2): < 1 nM
- Ki [1]: < 0.7 nM
- IC50 [2, 4]: < 100 nM
- IC50 ([2]; Human immunodeficiency virus 1): < 49 nM

SMILES: COc1ccc2c(c1)OCCCCC=CCC(C)(C)CN(CC(O)C(Cc1ccccc1)NC(=O)OC1COC3OCCC13)S2(=O)=O (stereo not shown) [Compound 21a]
- Ki ([1]; Table 4): < 10 nM
- IC50 ([2]; Table 4): > 1000 nM
